This experiment concerns the target T1, recombinant human GSK3β (Homo sapiens, UniProt P49841).
T1 construct: purchased Dundee University, UK
Kind of experiment: GSK3β Scintillation Proximity Assay (ATP competition). It counts as biochemical. As to conditions: ATP 1 μM; Km of ATP for GSK3β 20 μM; peptide substrate 1 μM. As to the method: Determination of ATP Competition in Scintillation Proximity GSK3β Assay.
GSK3β Scintillation Proximity Assay.
The competition experiments were carried out in duplicate with 10 different concentrations of the inhibitors in clear-bottom microtiter plates (Wallac, Finland). A biotinylated peptide substrate, Biotin-Ala-Ala-Glu-Glu-Leu-Asp-Ser-Arg-Ala-Gly-Ser(PO3H2)-Pro-Gln-Leu (AstraZeneca, Lund), was added at a final concentration of 1 μM in an assay buffer containing 1 mU recombinant human GSK3β (Dundee University, UK), 12 mM morpholinepropanesulfonic acid (MOPS), pH 7.0, 0.3 mM EDTA, 0.01% β-mercaptorethanol, 0.004% Brij 35 (a […] detergent), 0.5% glycerol and 0.5 μg BSA/25 μl. The reaction was initiated by the addition of 0.04 μCi [γ-^33P]ATP (Amersham, UK) and unlabelled ATP at a final concentration of 1 μM and assay volume of 25 μl. After incubation for 20 minutes at room temperature, each reaction was terminated by the addition of 25 μl stop solution containing 5 mM EDTA, 50 μM ATP, 0.1% Triton X-100 and 0.25 mg streptavidin coated Scintillation Proximity Assay (SPA) beads (Amersham, UK). After 6 hours the radioactivity was determined in a liquid scintillation counter (1450 MicroBeta Trilux, Wallac). The inhibition curves were analysed by non-linear regression using GraphPad Prism, USA. […]
(Scintillation proximity formats need no separation of bound from free tracer.)

We go through one compound from patent US20120101132A1, “New Substituted Oxindole Derivative” (priority 2008, published 2012).

Usually Ki stands for a dissociation constant, usually derived from enzyme kinetics or from competition with a known ligand.

T1 sequence (P49841 whole entry): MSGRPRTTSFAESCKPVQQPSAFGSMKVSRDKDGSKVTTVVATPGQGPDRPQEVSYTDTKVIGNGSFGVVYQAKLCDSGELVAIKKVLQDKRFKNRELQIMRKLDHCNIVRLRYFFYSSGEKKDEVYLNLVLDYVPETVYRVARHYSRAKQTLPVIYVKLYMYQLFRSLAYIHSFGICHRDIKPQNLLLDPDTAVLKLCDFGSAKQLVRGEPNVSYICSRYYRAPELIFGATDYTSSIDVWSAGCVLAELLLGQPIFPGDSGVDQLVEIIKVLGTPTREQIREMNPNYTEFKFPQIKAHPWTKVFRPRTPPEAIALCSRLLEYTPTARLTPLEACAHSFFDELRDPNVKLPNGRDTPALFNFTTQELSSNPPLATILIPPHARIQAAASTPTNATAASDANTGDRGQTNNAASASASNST

On to `N#Cc1ccc2[nH]c(O)c(-c3ccc(C(=O)O)cn3)c2c1` [compound of formula (I), 6-(5-cyano-2-hydroxy-1H-indol-3-yl)pyridine-3-carboxylic acid], for which the Ki was determined as 32 nM.
